Results from US9234848B2, “Compounds having chromophore and photoreactive groups” (CENTRE NATIONAL DE LA RECHERCHE SCIENTIFIQUE (C.N.R.S.), priority 2011, dated 2016).

Molecular target: T1, Halobacterium salinarum bacterio-rhodopsin (Halobacterium salinarum, UniProt P02945)
T1 construct: purchased SIGMA
T1 sequence (P02945 14-262): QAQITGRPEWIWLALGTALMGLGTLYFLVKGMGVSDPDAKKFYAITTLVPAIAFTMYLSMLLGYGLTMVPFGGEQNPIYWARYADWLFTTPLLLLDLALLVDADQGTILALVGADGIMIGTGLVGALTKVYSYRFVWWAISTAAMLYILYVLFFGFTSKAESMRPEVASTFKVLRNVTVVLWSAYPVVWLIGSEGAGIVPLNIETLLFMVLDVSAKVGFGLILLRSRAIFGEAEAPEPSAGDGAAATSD
Experiment: Photomarking of bacteriorhodopsin (covalent bridging after UV irradiation, fluorescence detected on gel)
Assay type: biochemical
Conditions: compound in DPC micelles (1:50 molar), protein-compound molar ratio 1:5, 1 hour in darkness at 4° C., 45 s UV irradiation, gel read on Fluorimager with rhodamine filter
Protocol: • Reagents: • Dodecylphosphocholine (DPC) and Halobacterium salinarum bacterio-rhodopsin are from SIGMA. Egg yolk phosphatidylcholine (PC) and cholesterol (chol, 99% pure) are from Avanti Polar Lipids (Alabaster, USA). • Preparation of the Liposomes: • PC, chol and the lipid tool (12a-c) (molar ratio 65:30:5) dissolved in chloroform are mixed in a test tube. After evaporation of the solvent with heat (45 mins at 37° C.), the dry film is hydrated by adding 300 μl of PBS at pH 7.4 in order to obtain a final concentration of lipids of 5 mM. The mixture is stirred and the resulting suspension is heated to 37° C., and then cooled in liquid nitrogen 5 times, and then passed through an extruder equipped with two 100 nm filters (35 passages). • Fluorescence Spectroscopy: • The excitation and emission spectra of the probe compounds according to the invention, within liposomes are recorded at 32° C. on a TECAN Infinite M1000 spectrofluorimeter. The lipid composition of the liposomes is PC:chol:lipid-tool 65:30:5 (molar ratio). The <> control liposomes consist of PC:chol, and their residual fluorescence is subtracted from the measured fluorescence spectra. • Photomarking of Bacteriorhodopsin: • DPC is added to a compound as a solution in chloroform-methanol (2/1, v/v) in the compound/detergent proportion of 1:50 molar. After evaporation in a high vacuum for 2 hours, the dry lipid film is hydrated by adding 50 μL of distilled water and 50 μl of Tris-HCl pH 8.0. The bacterio-rhodopsin resuspended in distilled water, is incubated with the compounds according to invention in detergent micelles, in a protein-compound molar ratio of 1:5. […] After migration, the gel is first analyzed on a Fluorimager Typhoon 8600 equipped with a rhodamine filter, in order to detect fluorescence; the gel is then colored with Coomassie blue for viewing all the protein bands. […]

CCCCCCc1ccc(C(=O)c2ccc(CCCCCC(=O)O)cc2)cc1 [1a, 6-(4-(4-n-hexylbenzoyl)phenyl)hexanoic acid]
Intensity of the photomarking signal (arbitrary units - AU): 5 AU

Cc1ccc(C(=O)c2ccc(CCCCCCCCCCC(=O)O)cc2)cc1 [1b]
Intensity of the photomarking signal (arbitrary units - AU): 10 AU

CCCCCCCCCCc1ccc(C(=O)c2ccc(CC(=O)O)cc2)cc1 [1c, (4-(4-decylbenzoyl)phenyl)ethanoic acid]
Intensity of the photomarking signal (arbitrary units - AU): 1 AU
